From US20260132132A1, “3A,4,5,6-TETRAHYDRO-1 H-PYRAZOLO[3,4-C]PYRIDIN-7(7AH)-ONE DERIVATIVES AS FACTOR XIIA INHIBITORS” (KALVISTA PHARMACEUTICALS LIMITED, priority 2022, published 2026)

What was measured:
[1] = biological target: FXa (Homo sapiens, UniProt P00742); assay: Related protease inhibition: FXa, fluorogenic substrate; type: biochemical; details: fluorogenic substrate at Km, 25° C.; H1-H3 = % activity at 40 μM
Experimental: Human serine protease enzyme Plasma Kallikrein, KLK1, FXa, Plasmin, Thrombin and Trypsin were assayed for enzymatic activity using an appropriate fluorogenic substrate at Km concentration, FXIa at fixed substrate concentration of 100 μM and various concentrations of the test compound.

[2] = biological target: T1, Human Factor XIIa (hFXIIa) (Homo sapiens, UniProt P00748); assay: Determination of Human Factor XIIa (hFXIIa) inhibition, fluorogenic substrate IC50 assay; type: biochemical; details: fluorogenic substrate H-DPro-Phe-Arg-AFC at Km, 25° C., read-out: Human FXIIa IC50
T1 construct: purchased Enzyme Research Laboratories
T1 sequence (P00748 373-615 limits assumed): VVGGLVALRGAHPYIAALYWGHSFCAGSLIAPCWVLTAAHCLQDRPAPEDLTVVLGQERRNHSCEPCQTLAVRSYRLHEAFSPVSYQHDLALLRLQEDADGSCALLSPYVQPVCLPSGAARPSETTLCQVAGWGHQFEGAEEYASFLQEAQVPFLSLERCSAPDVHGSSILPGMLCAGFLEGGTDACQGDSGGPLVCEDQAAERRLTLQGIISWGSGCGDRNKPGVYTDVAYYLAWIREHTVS
T1 sequence (P00748 20-372 partner limits assumed): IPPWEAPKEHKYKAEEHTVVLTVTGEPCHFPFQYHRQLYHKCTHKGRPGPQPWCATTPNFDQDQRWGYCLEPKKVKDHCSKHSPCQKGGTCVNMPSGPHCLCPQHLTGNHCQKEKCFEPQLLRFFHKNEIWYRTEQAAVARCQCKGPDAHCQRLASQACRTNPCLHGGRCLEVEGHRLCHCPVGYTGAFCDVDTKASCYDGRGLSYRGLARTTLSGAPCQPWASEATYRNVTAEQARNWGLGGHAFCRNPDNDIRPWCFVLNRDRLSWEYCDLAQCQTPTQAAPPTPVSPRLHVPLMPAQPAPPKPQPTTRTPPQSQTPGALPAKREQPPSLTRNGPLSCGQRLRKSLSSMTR
Experimental: Determination of Human Factor XIIa (hFXIIa) inhibition
The Km for the cleavage of the substrate by hFXIIa was determined by standard transformation of the Michaelis-Menten equation, with subsequent inhibition assays performed at substrate Km concentration.

Chain of FXa (P00742 235-488 limits assumed): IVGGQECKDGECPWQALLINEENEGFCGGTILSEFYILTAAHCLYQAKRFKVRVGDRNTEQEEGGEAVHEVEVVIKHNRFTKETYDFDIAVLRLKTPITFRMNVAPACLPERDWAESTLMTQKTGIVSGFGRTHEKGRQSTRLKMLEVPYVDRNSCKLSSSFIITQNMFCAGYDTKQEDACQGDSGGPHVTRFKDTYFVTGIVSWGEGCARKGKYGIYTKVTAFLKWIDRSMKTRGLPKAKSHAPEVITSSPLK
Chain of FXa (P00742 41-179 partner limits assumed): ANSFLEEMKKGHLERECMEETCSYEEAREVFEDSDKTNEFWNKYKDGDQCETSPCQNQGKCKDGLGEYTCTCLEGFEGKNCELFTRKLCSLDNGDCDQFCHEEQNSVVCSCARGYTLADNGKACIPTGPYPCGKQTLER

| Compound | IC50 [1] [µM] | IC50 [2] [µM] |
| --- | --- | --- |
| CN1CCc2ccc(N3CCc4c(C(=O)NCC5CCOC5)nn(-c5cccc(Cl)c5)c4C3=O)cc2C1=O (stereo not shown) [Example 1198, 1-(3-chlorophenyl)-6-(2-methyl-1-oxo-1,2,3,4-tetrahydroisoquinolin-7-yl)-7-oxo-N-((tetrahydrofuran-3-yl)methyl)-4,5,6,7-tetrahydro-1H-pyrazolo[3,4-c]pyridine-3-carboxamide] | > 40 | 0.3 to 1 |
| Cc1cc(CNC(=O)c2nn(-c3cccc(Cl)c3)c3c(=O)n(-c4ccc5c(c4)C(=O)N(C)CC5)c(C)nc23)n[nH]1 [Example 3020, 1-(3-chlorophenyl)-5-methyl-6-(2-methyl-1-oxo-1,2,3,4-tetrahydroisoquinolin-7-yl)-N-((5-methyl-1H-pyrazol-3-yl)methyl)-7-oxo-6,7-dihydro-1H-pyrazolo[4,3-d]pyrimidine-3-carboxamide] | 10 to 40 | 0.1 to 0.3 |
| C[C@H](CO)NC(=O)c1nn(-c2cccc(Cl)c2)c2c1CCN(c1ccc3c(c1)C(=O)N(C)CC3)C2=O [Example 1337, (R)-1-(3-chlorophenyl)-N-(1-hydroxypropan-2-yl)-6-(2-methyl-1-oxo-1,2,3,4-tetrahydroisoquinolin-7-yl)-7-oxo-4,5,6,7-tetrahydro-1H-pyrazolo[3,4-c]pyridine-3-carboxamide] | > 40 | 0.3 to 1 |
| CCNC(=O)c1nn(-c2cccc(Cl)c2)c2c1CCN(c1ccc(OC)c(N3C(=O)CC4CC43)c1)C2=O (stereo not shown) [Example 1402, 1-(3-chlorophenyl)-N-ethyl-6-(4-methoxy-3-(3-oxo-2-azabicyclo[3.1.0]hexan-2-yl)phenyl)-7-oxo-4,5,6,7-tetrahydro-1H-pyrazolo[3,4-c]pyridine-3-carboxamide] | > 40 | 3 to 10 |
| CCN1CCc2cc(F)c(N3CCc4c(C(=O)NCc5cc(C6CC6)n[nH]5)nn(-c5cccc(Cl)c5)c4C3=O)cc2C1 [Example 1234, 1-(3-chlorophenyl)-N-((3-cyclopropyl-1H-pyrazol-5-yl)methyl)-6-(2-ethyl-6-fluoro-1,2,3,4-tetrahydroisoquinolin-7-yl)-7-oxo-4,5,6,7-tetrahydro-1H-pyrazolo[3,4-c]pyridine-3-carboxamide] | 3 to 10 | 0.01 to 0.1 |
| CCNC(=O)c1nn(-c2cc(C)ccn2)c2c1CCN(c1ccc3c(c1)C(=O)N(C)CC3)C2=O [Example 2035, N-ethyl-6-(2-methyl-1-oxo-1,2,3,4-tetrahydroisoquinolin-7-yl)-1-(4-methylpyridin-2-yl)-7-oxo-4,5,6,7-tetrahydro-1H-pyrazolo[3,4-c]pyridine-3-carboxamide] | 10 to 40 | 3 to 10 |
| Cc1ncc(CNC(=O)c2nn(-c3cccc(Cl)c3)c3c2CCN(c2ccc4c(c2)C(=O)N(C)CC4)C3=O)o1 [Example 1194, 1-(3-chlorophenyl)-6-(2-methyl-1-oxo-1,2,3,4-tetrahydroisoquinolin-7-yl)-N-((2-methyloxazol-5-yl)methyl)-7-oxo-4,5,6,7-tetrahydro-1H-pyrazolo[3,4-c]pyridine-3-carboxamide] | > 40 | 0.3 to 1 |
| CCN1Cc2cc(N3CCc4c(C(=O)NCC5CC5)nn(-c5cccc(Cl)c5)c4C3=O)ccc2C2(CC2)C1 [Example 1099, 1-(3-chlorophenyl)-N-(cyclopropylmethyl)-6-(2′-ethyl-2′,3′-dihydro-1′H-spiro[cyclopropane-1,4′-isoquinolin]-7′-yl)-7-oxo-4,5,6,7-tetrahydro-1H-pyrazolo[3,4-c]pyridine-3-carboxamide] | 3 to 10 | 0.01 to 0.1 |
| Cc1ccncc1CNC(=O)c1nn(-c2cccc(Cl)c2)c2c(=O)n(-c3ccc4c(c3)C(=O)N(CCO)CC4)c(C)nc12 [Example 3017, 1-(3-chlorophenyl)-6-(2-(2-hydroxyethyl)-1-oxo-1,2,3,4-tetrahydroisoquinolin-7-yl)-5-methyl-N-((4-methylpyridin-3-yl)methyl)-7-oxo-6,7-dihydro-1H-pyrazolo[4,3-d]pyrimidine-3-carboxamide] | 10 to 40 | 0.01 to 0.1 |
| C[C@H]1CN(CCO)Cc2cc(N3CCc4c(C(=O)NCC5CC5)nn(-c5cccc(Cl)c5)c4C3=O)ccc21 [Example 1152, (R)-1-(3-chlorophenyl)-N-(cyclopropylmethyl)-6-(2-(2-hydroxyethyl)-4-methyl-1,2,3,4-tetrahydroisoquinolin-7-yl)-7-oxo-4,5,6,7-tetrahydro-1H-pyrazolo[3,4-c]pyridine-3-carboxamide] | > 40 | 0.3 to 1 |
| CCOC(=O)c1nn(-c2cccc(Cl)c2)c2c1CCN(c1cccc(CN3CCCCC3)c1)C2=O [Example 1007, ethyl 1-(3-chlorophenyl)-7-oxo-6-(3-(piperidin-1-ylmethyl)phenyl)-4,5,6,7-tetrahydro-1H-pyrazolo[3,4-c]pyridine-3-carboxylate] | 10 to 40 | 0.1 to 0.3 |
| Cc1cc(CNC(=O)c2nn(-c3cccc(Cl)c3)c3c2CCN(c2ccc4c(c2)C(=O)N(CC(=O)O)CC4)C3=O)nn1C [Example 1331, 2-(7-(1-(3-chlorophenyl)-3-(((1,5-dimethyl-1H-pyrazol-3-yl)methyl)carbamoyl)-7-oxo-1,4,5,7-tetrahydro-6H-pyrazolo[3,4-c]pyridin-6-yl)-1-oxo-3,4-dihydroisoquinolin-2(1H)-yl)acetic acid] | > 4 | 0.3 to 1 |
| CN1CCc2ccc(N3CCc4c(C(=O)NC5CCOC5(C)C)nn(-c5cccc(Cl)c5)c4C3=O)cc2C1=O (stereo not shown) [Example 1197, 1-(3-chlorophenyl)-N-(2,2-dimethyltetrahydrofuran-3-yl)-6-(2-methyl-1-oxo-1,2,3,4-tetrahydroisoquinolin-7-yl)-7-oxo-4,5,6,7-tetrahydro-1H-pyrazolo[3,4-c]pyridine-3-carboxamide] | > 40 | 0.3 to 1 |
| CCN1CCc2ccc(N3CCc4c(C(=O)NCc5ccccc5)nn(-c5cccc(Cl)c5)c4C3=O)cc2C1 [Example 1021, N-benzyl-1-(3-chlorophenyl)-6-(2-ethyl-1,2,3,4-tetrahydroisoquinolin-7-yl)-7-oxo-4,5,6,7-tetrahydro-1H-pyrazolo[3,4-c]pyridine-3-carboxamide] | 3 to 10 | 0.01 to 0.1 |
| CN1CCc2ccc(N3CCc4c(C(=O)NS(C)(=O)=O)nn(-c5cccc(Cl)c5)c4C3=O)cc2C1=O [Example 1345, 1-(3-chlorophenyl)-6-(2-methyl-1-oxo-1,2,3,4-tetrahydroisoquinolin-7-yl)-N-(methylsulfonyl)-7-oxo-4,5,6,7-tetrahydro-1H-pyrazolo[3,4-c]pyridine-3-carboxamide] | > 40 | 3 to 10 |
| Cc1cc(CNC(=O)c2nn(-c3cccc(Cl)c3)c3c2CCN(c2ccc4c(c2)C(=O)N(C)[C@@H](CO)CO4)C3=O)nn1C [Example 1395, (S)-1-(3-chlorophenyl)-N-((1,5-dimethyl-1H-pyrazol-3-yl)methyl)-6-(3-(hydroxymethyl)-4-methyl-5-oxo-2,3,4,5-tetrahydrobenzo[f][1,4]oxazepin-7-yl)-7-oxo-4,5,6,7-tetrahydro-1H-pyrazolo[3,4-c]pyridine-3-carboxamide] | > 40 | 1 to 3 |
| CCOC(=O)c1nn(-c2cccc(Cl)c2)c2c1CCN(c1ccc3c(c1)CN(C)CC3)C2=O [Example 1013, ethyl 1-(3-chlorophenyl)-6-(2-methyl-1,2,3,4-tetrahydroisoquinolin-7-yl)-7-oxo-4,5,6,7-tetrahydro-1H-pyrazolo[3,4-c]pyridine-3-carboxylate] | 0.3 to 1 | 0.1 to 0.3 |
